From US10125118B2, “Heteroaryl compounds and their use as therapeutic drugs” (Dong-A Socio Holdings Co., Ltd., priority 2015, dated 2018)
Like-named read-outs stand apart in the source and are kept apart here.

Columns and labels:
[1] = test system: CD8-MerTK in Ba/F3-CDM cells; test: In cell MER kinase assay, Ba/F3-CDM cell proliferation without IL-3 (Celltiter-Glo); format: cell-based, murine; conditions: 48 hours compound treatment, read-out: Cell growth inhibition (GI50)
Summary of the method: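 Ba/F3 cells, IL-3-dependent, transfected with CD8-MerTK and grown without IL-3 in DMEM/10% FBS. IL-3-supplemented Ba/F3 cells run in parallel as a cytotoxicity control.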

[2] = biological target: human c-MER catalytic domain (Homo sapiens (Human), UniProt Q12866); test: LanthaScreen TR-FRET kinase assay, c-MER
[3] = read-out: Mer TK inhibition (IC50), Biochemical IC50, TR-FRET, 10 uM ATP

human c-MER catalytic domain, sequence (Q12866 587-858): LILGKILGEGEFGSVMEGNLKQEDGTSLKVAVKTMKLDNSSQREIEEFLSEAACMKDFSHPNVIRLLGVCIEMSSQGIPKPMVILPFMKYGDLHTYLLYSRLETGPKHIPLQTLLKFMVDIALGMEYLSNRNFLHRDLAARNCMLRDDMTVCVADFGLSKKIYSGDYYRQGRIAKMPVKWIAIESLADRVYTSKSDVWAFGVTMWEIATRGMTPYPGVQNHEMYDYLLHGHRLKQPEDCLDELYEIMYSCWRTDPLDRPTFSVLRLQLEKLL

SMILES | GI50 [1] | IC50 [2, 3] | IC50 [2]
CN1CCN(Cc2ccc(-c3ccc(CO[C@H]4CCC[C@@H]4NC(=O)c4cc(-c5cnn(C)c5)cnc4N)cc3Cl)cc2)CC1 [Example 159, 2-amino-N-((1S,2S)-2-((2-chloro-4′-((4-methylpiperazin-1-yl)-methyl)-[1,1′-biphenyl]-4-yl)methoxy)cyclopentyl)-5-(1-methyl-1H-pyrazol-4-yl)-nicotinamide] | 100 to 500 nM | < 10 nM | 
CCc1cc(CO[C@H]2CNC[C@@H]2NC(=O)c2cc(-c3ccc(C(N)=O)cc3)cnc2N)ccc1C [Example 391, 2-amino-5-(4-carbamoylphenyl)-N-((3S,4S)-4-((3-ethyl-4-methylbenzyl)oxy)pyrrolidin-3-yl)nicotinamide] | > 1000 nM | < 10 nM | 
CN1CCN(Cc2ccc(-c3ccc(CO[C@H]4CCC[C@@H]4NC(=O)c4cc(-c5cnn(C)c5)cnc4N)cc3)cc2[N+](=O)[O-])CC1 [Example 200, 2-amino-5-(1-methyl-1H-pyrazol-4-yl)-N-((1S,2S)-2-((4′-((4-methylpiperazin-1-yl)methyl)-3′-nitro-[1,1′-biphenyl]-4-yl)methoxy)-cyclopentyl)nicotinamide] | 100 to 500 nM | < 10 nM | 
CN1CCN(Cc2ccc(-c3ccc(CO[C@H]4COC[C@@H]4NC(=O)c4cc(-c5cnn(C)c5)cnc4N)cc3)cc2C(F)(F)F)CC1 [Example 449, 2-amino-5-(1-methyl-1H-pyrazol-4-yl)-N-((3S,4R)-4-((4′-((4-methylpiperazin-1-yl)methyl)-3′-(trifluoromethyl)-[1,1′-biphenyl]-4-yl)methoxy)-tetrahydrofuran-3-yl)nicotinamide] | < 100 nM | < 10 nM | 
Cc1cscc1-c1cnc(N)c(C(=O)N[C@H]2CCC[C@@H]2OCc2ccc(-c3ccc(CN4CCN(C)CC4)cc3)cc2)c1 [Example 385, 2-amino-N-((1S,2S)-2-((4′-((4-methylpiperazin-1-yl)methyl)-[1,1′-biphenyl]-4-yl)methoxy)cyclopentyl)-5-(4-methylthiophen-3-yl)nicotinamide] | 100 to 500 nM | < 10 nM | 
CN1CCN(Cc2c(F)cc(-c3ccc(CO[C@H]4CCC[C@@H]4NC(=O)c4cc(-c5cnn(C)c5)cnc4N)cc3)cc2F)CC1 [Example 196, 2-amino-N-((1S,2S)-2-((3′,5′-difluoro-4′-((4-methylpiperazin-1-yl)methyl)-[1,1′-biphenyl]-4-yl)methoxy)cyclopentyl)-5-(1-methyl-1H-pyrazol-4-yl)nicotinamide] | 100 to 500 nM | < 10 nM | 
CN1CCN(Cc2ccc(-c3ccc(CO[C@H]4CCC[C@@H]4NC(=O)c4cc(-c5ccc(CN6CCN(C)CC6)cc5)cnc4N)cc3)cc2)CC1 [Example 368] | < 100 nM | < 10 nM | 
CN1CCN(Cc2ccc(-c3ccc(CO[C@H]4CCC[C@@H]4NC(=O)c4cc(-c5cnn(C)c5)cnc4N)cc3)c(Cl)c2)CC1 [Example 202, 2-amino-N-((1S,2S)-2-((2′-chloro-4′-((4-methylpiperazin-1-yl)-methyl)-[1,1′-biphenyl]-4-yl)methoxy)cyclopentyl)-5-(1-methyl-1H-pyrazol-4-yl)-nicotinamide] | 100 to 500 nM | < 10 nM | 
CCc1cc(CO[C@H]2CN(C)C[C@@H]2NC(=O)c2cc(-c3cnn(C)c3)cnc2N)ccc1C [Example 426, 2-amino-N-((3S,4S)-4-((3-ethyl-4-methylbenzyl)oxy)-1-methylpyrrolidin-3-yl)-5-(1-methyl-1H-pyrazol-4-yl)nicotinamide] | 500 to 1000 nM | < 10 nM | 
CCc1cc(CO[C@H]2CNC[C@@H]2NC(=O)c2cc(-c3ccc(NS(C)(=O)=O)cc3)cnc2N)ccc1C [Example 401, 2-amino-N-((3S,4S)-4-((3-ethyl-4-methylbenzyl)oxy)pyrrolidin-3-yl)-5-(4-(methylsulfonamido)phenyl)nicotinamide] | > 1000 nM | < 10 nM | 
CCc1ccc(-c2ccc(CO[C@H]3CCC[C@@H]3NC(=O)c3cc(-c4cnn(C)c4)cnc3N)cc2)cc1 [Example 153, 2-amino-N-((1S,2S)-2-((4′-ethyl-[1,1′-biphenyl]-4-yl)-methoxy)cyclopentyl)-5-(1-methyl-1H-pyrazol-4-yl)nicotinamide] | 500 to 1000 nM | < 10 nM | 
CC(c1ccc(-c2ccc(CO[C@H]3CCC[C@@H]3NC(=O)c3cc(-c4cnn(C)c4)cnc3N)cc2)cc1)N1C[C@@H](C)N(CCO)[C@@H](C)C1 (stereo partly shown) [Example 211] | < 100 nM | < 10 nM | 
CN1CCN(Cc2ccc(-c3ccc(CO[C@H]4CCC[C@@H]4NC(=O)c4cc(-c5cnn(C)c5)cnc4N)cc3)cc2C(F)(F)F)CC1 [Example 197, 2-amino-5-(1-methyl-1H-pyrazol-4-yl)-N-((1S,2S)-2-((4′-((4-methylpiperazin-1-yl)methyl)-3′-(trifluoromethyl)-[1,1′-biphenyl]-4-yl)methoxy)-cyclopentyl)nicotinamide] | < 100 nM | < 10 nM | 
CN1CCN(C(C)(C)c2ccc(-c3ccc(CO[C@H]4COC[C@@H]4NC(=O)c4cc(-c5cnn(C)c5)cnc4N)cc3)cc2)CC1 [Example 450, 2-amino-5-(1-methyl-1H-pyrazol-4-yl)-N-((3S,4R)-4-((4′-(2-(4-methylpiperazin-1-yl)propan-2-yl)-[1,1′-biphenyl]-4-yl)methoxy)tetrahydrofuran-3-yl)nicotinamide] | < 100 nM | < 10 nM | 
CN1CCN(c2ccc(-c3ccc(CO[C@H]4CCC[C@@H]4NC(=O)c4cc(-c5cnn(C)c5)cnc4N)cc3)cc2)CC1 [Example 146, 2-amino-5-(1-methyl-1H-pyrazol-4-yl)-N-((1S,2S)-2-((4′-(4-methylpiperazin-1-yl)-[1,1′-biphenyl]-4-yl)methoxy)cyclopentyl)nicotinamide] | < 100 nM | < 10 nM | 
CN1CCN(Cc2ccc(-c3ccc(CO[C@H]4CCC[C@@H]4NC(=O)c4nc(-c5cnn(C)c5)cnc4N)cc3)cc2)CC1 [Example 194, 3-amino-6-(1-methyl-1H-pyrazol-4-yl)-N-((1S,2S)-2-((4′-((4-methylpiperazin-1-yl)methyl)-[1,1′-biphenyl]-4-yl)methoxy)cyclopentyl)pyrazine-2-carboxamide] | < 100 nM | < 10 nM | 
CCc1cc(CO[C@H]2CCC[C@@H]2NC(=O)c2cc(-c3cnn(C)c3)cnc2N)ccc1C [Example 21, 2-amino-N-((1S,2S)-2-((3-ethyl-4-methylbenzyl)oxy)cyclopentyl)-5-(1-methyl-1H-pyrazol-4-yl)nicotinamide] | > 1000 nM | < 10 nM | 
CCc1cc(CO[C@H]2CNC[C@@H]2NC(=O)c2cc(-c3ccc(C=O)cc3)cnc2N)ccc1C [Example 399, 2-amino-N-((3S,4S)-4-((3-ethyl-4-methylbenzyl)oxy)pyrrolidin-3-yl)-5-(4-formylphenyl)nicotinamide] | 500 to 1000 nM |  | < 10 nM
CN1C[C@H](NC(=O)c2cc(-c3cnn(C)c3)cnc2N)[C@@H](OCc2ccc(-c3ccc(CN4CCN(CCO)CC4)cc3)cc2)C1 [Example 447, 2-amino-N-((3S,4S)-4-((4′-((4-(2-hydroxyethyl)piperazin-1-yl)-methyl)-[1,1′-biphenyl]-4-yl)methoxy)-1-methylpyrrolidin-3-yl)-5-(1-methyl-1H-pyrazol-4-yl)nicotinamide] | < 100 nM | < 10 nM | 
Cc1ccc(CO[C@H]2CCC[C@@H]2NC(=O)c2cc(-c3ccc(CN4CCC(O)CC4)cc3)cnc2N)cc1C [Example 328, 2-amino-N-((1S,2S)-2-((3,4-dimethylbenzyl)oxy)cyclopentyl)-5-(4-((4-hydroxypiperidin-1-yl)methyl)phenyl)nicotinamide] | 500 to 1000 nM | < 10 nM | 
CCc1cc(CO[C@H]2CNC[C@@H]2NC(=O)c2cc(-c3ccc(C#N)cc3)cnc2N)ccc1C [Example 400, 2-amino-5-(4-cyanophenyl)-N-((3S,4S)-4-((3-ethyl-4-methylbenzyl)oxy)pyrrolidin-3-yl)nicotinamide] | 500 to 1000 nM | < 10 nM | 
CC(c1ccc(-c2ccc(CO[C@H]3CCC[C@@H]3NC(=O)c3cc(-c4cncc(F)c4)cnc3N)cc2)cc1)N1CCN(CCO)CC1 (stereo partly drawn) [Example 236, 6-amino-5′-fluoro-N-((1S,2S)-2-((4′-(1-(4-(2-hydroxyethyl)-piperazin-1-yl)ethyl)-[1,1′-biphenyl]-4-yl)methoxy)cyclopentyl)-[3,3′-bipyridine]-5-carboxamide] | < 100 nM | < 10 nM | 
CN1CCN(Cc2ccc(-c3ccc(CO[C@H]4CCC[C@@H]4NC(=O)c4cc(-c5cc(F)nc(F)c5)cnc4N)cc3)cc2)CC1 [Example 384] | < 100 nM | < 10 nM | 
CN1CCN(Cc2ccc(-c3ccc(CO[C@H]4CCC[C@@H]4NC(=O)c4cc(-c5ccc(CO)cc5)cnc4N)cc3)cc2)CC1 [Example 369, 2-amino-5-(4-(hydroxymethyl)phenyl)-N-((1S,2S)-2-((4′-((4-methylpiperazin-1-yl)methyl)-[1,1′-biphenyl]-4-yl)methoxy)cyclopentyl)nicotinamide] | < 100 nM | < 10 nM | 
CN1CCN(Cc2ccc(-c3ccc(CO[C@H]4CNC[C@@H]4NC(=O)c4cc(-c5cnn(C)c5)cnc4N)cc3)cc2C(F)(F)F)CC1 [Example 436, 2-amino-5-(1-methyl-1H-pyrazol-4-yl)-N-((3S,4S)-4-((4′-((4-methylpiperazin-1-yl)methyl)-3′-(trifluoromethyl)-[1,1′-biphenyl]-4-yl)methoxy)-pyrrolidin-3-yl)nicotinamide] | 500 to 1000 nM | < 10 nM | 
C[C@@H]1CN(C)CCN1Cc1ccc(-c2ccc(CO[C@H]3CCC[C@@H]3NC(=O)c3cc(-c4cnn(C)c4)cnc3N)cc2)cc1 [Example 187, 2-amino-N-((1S,2S)-2-((4′-(((R)-2,4-dimethylpiperazin-1-yl)-methyl)-[1,1′-biphenyl]-4-yl)methoxy)cyclopentyl)-5-(1-methyl-1H-pyrazol-4-yl)-nicotinamide] | < 100 nM | < 10 nM | 
